Experimental data as given in patent US11639350B2, “Heteroaryldihydropyrimidine derivatives and methods of treating hepatitis B infections” (Janssen Pharmaceutica NV, priority 2018, dated 2023).
Read-outs that look alike come from different tables or passages of the source.

Assays:
[1] = system: HBV; experiment: HBV inhibitory activity: HBV DNA in the culture medium of HepG2.2.15 cells by q-PCR; format: cell-based; settings: Hepatitis B virus, HepG2.2.15, 144 h
Procedure, shortened: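 Supernatant HBV DNA quantified by q-PCR after a 6-day compound exposure, with one mid-course medium change, of HepG2.2.15 cells (stably integrated HBV; 40,000 per well, 2% FBS). Eight-point 3-fold series topped at 10 μM for antiviral EC50; separate plates of 5,000 cells per well with 100 μM top give CC50.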

[2] = Cytotoxicity determination in HepG2.2.15 cells (CCK-8); format: cell-based; settings: human, 6 days of compound treatment, CCK-8, highest concentration 100 μM
Procedure, shortened: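 CC50 is from CCK-8 absorbance (450 nm, 630 nm reference) after 2.5 h with reagent. Before that, compounds were applied for six days, top concentration 100 μM, eight threefold dilutions, one mid-course medium change, to stably HBV-integrated HepG2.2.15 cells plated at 5,000/well in 2% FBS.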

[3] = HepG2.2.15 cells, 6 days of compound treatment, HBV DNA in culture medium by q-PCR, highest concentration 10 μM, read-out: EC50

Row | SMILES | EC50 [1, 3] [nM] | CC50 at 6 days [2] [nM] | EC50 [1] [nM]
1 | COC(=O)C1=C(C2CCN(S(=O)(=O)c3cnn(Cc4ncco4)c3)CC2)NC(c2nccs2)=NC1c1ccc(F)c(F)c1Cl (stereo not shown) [Compound 465, Methyl 4-(2-chloro-3,4-difluorophenyl)-6-(1-((1-(oxazol-2-ylmethyl)-1H-pyrazol-4-yl)sulfonyl)piperidin-4-yl)-2-(thiazol-2-yl)-1,4-dihydropyrimidine-5-carboxylate] | 9 | 35200 | 
2 | COC(=O)C1=C([C@H]2C[C@@H](CO)CO2)NC(c2nccs2)=NC1c1cccc(F)c1Cl (relative stereo) [Compound 221, (cis)-Methyl 4-(2-chloro-3-fluorophenyl)-6-(4-(hydroxymethyl)tetrahydrofuran-2-yl)-2-(thiazol-2-yl)-1,4-dihydropyrimidine-5-carboxylate] | 53 | 47100 | 
3 | CCOC(=O)C1=C(C2CCN(S(=O)(=O)CC3CC(C(=O)O)C3)CC2)NC(c2nccs2)=NC1c1ccc(F)c(F)c1Cl (stereo not shown) [Compound 480B, 3-(((4-(6-(2-Chloro-3,4-difluorophenyl)-5-(ethoxycarbonyl)-2-(thiazol-2-yl)-3,6-dihydropyrimidin-4-yl)piperidin-1-yl)sulfonyl)methyl)cyclobutanecarboxylic Acid] | 22 | 9900 | 
4 | COC(=O)C1=C([C@H]2CC[C@H](C(=O)O)CC2)NC(c2nccs2)=NC1c1ccc(F)cc1Cl (single isomer, unassigned) [Compound 19, trans-4-(6-(2-Chloro-4-fluorophenyl)-5-(methoxycarbonyl)-2-(thiazol-2-yl)-3,6-dihydropyrimidin-4-yl)cyclohexanecarboxylic Acid] | 62 | 8700 | 
5 | COC(=O)C1=C([C@H]2CC[C@H](S(=O)(=O)NCCC(C)(C)O)CC2)NC(c2nccs2)=NC1c1ccc(F)c(F)c1Cl (stereo partly drawn) [Compound 358B, (trans)-Methyl 4-(2-chloro-3,4-difluorophenyl)-6-(4-(N-(3-hydroxy-3-methylbutyl)sulfamoyl)cyclohexyl)-2-(thiazol-2-yl)-1,4-dihydropyrimidine-5-carboxylate] | 59 | 12500 | 
6 | COC(=O)C1=C(C2CCN(S(=O)(=O)[C@H]3CC[C@H](C(=O)O)C3)CC2)NC(c2nccs2)=NC1c1ccc(F)cc1Cl (relative stereo) [Compound 311A, (trans)-3-((4-(6-(2-Chloro-4-fluorophenyl)-5-(methoxycarbonyl)-2-(thiazol-2-yl)-3,6-dihydropyrimidin-4-yl)piperidin-1-yl)sulfonyl)-cyclopentanecarboxylic Acid] | 89 | > 100000 | 
7 | COC(=O)C1=C([C@H]2CC[C@H](S(=O)(=O)N(C)C)CC2)NC(c2nccs2)=NC1c1ccc(F)c(F)c1Cl (single isomer, unassigned) [Compound 233C, (trans)-methyl 4-(2-chloro-3,4-difluorophenyl)-6-(4-(N,N-dimethylsulfamoyl)cyclohexyl)-2-(thiazol-2-yl)-1,4-dihydropyrimidine-5-carboxylate] | 13 | 5600 | 
8 | CCOC(=O)C1=C(C2[C@H]3CN(S(C)(=O)=O)C[C@@H]23)NC(c2nccs2)=NC1c1ccc(F)cc1Cl (single isomer, unassigned) [Compound 41A] | 514 | 11600 | 
9 | COC(=O)C1=C([C@H]2CC[C@H](N(CCO)S(C)(=O)=O)CC2)NC(c2nccs2)=NC1c1ccc(F)c(F)c1Cl (single isomer, unassigned) [Compound 315D, (trans)-Methyl 4-(2-chloro-3,4-difluorophenyl)-6-(4-(N-(2-hydroxyethyl)methylsulfonamido)cyclohexyl)-2-(thiazol-2-yl)-1,4-dihydropyrimidine-5-carboxylate] | 25 | 12600 | 
10 | COC(=O)C1=C(C2CCN(S(C)(=N)=O)CC2)NC(c2nccs2)=NC1c1ccc(F)cc1Cl (stereo not shown) [Compound 401B, Methyl 4-(2-chloro-4-fluorophenyl)-6-(1-(S-methylsulfonimidoyl)piperidin-4-yl)-2-(thiazol-2-yl)-1,4-dihydropyrimidine-5-carboxylate] | 29 | 56200 | 
11 | COC(=O)C1=C(C2CCN(C(=O)C3CC3)CC2)NC(c2nccs2)=NC1c1ccc(F)cc1Cl (stereo not shown) [Compound 102, Methyl 4-(2-chloro-4-fluorophenyl)-6-(1-(cyclopropanecarbonyl)-piperidin-4-yl)-2-(thiazol-2-yl)-1,4-dihydropyrimidine-5-carboxylate] | 130 | 57000 | 
12 | COC(=O)C1=C(C2CCN(S(=O)(=O)[C@H]3C[C@H](C(=O)O)C3)CC2)NC(c2nccs2)=NC1c1cccc(F)c1Br (relative stereo) [Compound 439B, (trans)-3-((4-(6-(2-Bromo-3-fluorophenyl)-5-(methoxycarbonyl)-2-(thiazol-2-yl)-3,6-dihydropyrimidin-4-yl)piperidin-1-yl)sulfonyl)cyclobutanecarboxylic Acid] | 66 | 53800 | 
13 | COC(=O)C1=C(C2CCN(S(=O)(=O)CCOCCO)CC2)NC(c2nccs2)=NC1c1ccc(F)cc1Cl (stereo not shown) [Compound 484, Methyl 4-(2-chloro-4-fluorophenyl)-6-(1-((2-(2-hydroxyethoxy)ethyl)sulfonyl)piperidin-4-yl)-2-(thiazol-2-yl)-1,4-dihydropyrimidine-5-carboxylate] |  | 47000 | 5
14 | COCCS(=O)(=O)N[C@H]1CC[C@H](C2=C(C(=O)OC)C(c3ccc(F)cc3Cl)N=C(c3nccs3)N2)CC1 (single isomer, unassigned) [Compound 182A, (trans)Methyl 4-(2-chloro-4-fluorophenyl)-6-(4-(2-methoxyethylsulfonamido)cyclohexyl)-2-(thiazol-2-yl)-1,4-dihydropyrimidine-5-carboxylate] | 93 | 33600 | 
15 | COC(=O)C1=C([C@H]2CC[C@H](CC(=O)O)CC2)NC(c2nccs2)=NC1c1cccc(F)c1Cl (relative stereo) [Compound 29, 2-(trans-4-(6-(2-Chloro-3-fluorophenyl)-5-(methoxycarbonyl)-2-(thiazol-2-yl)-3,6-dihydropyrimidin-4-yl)cyclohexyl)acetic Acid] | 123 | 33600 | 
16 | CCOC(=O)C[C@H]1CC[C@H](C2=C(C(=O)OC)C(c3cccc(F)c3Cl)N=C(c3nccs3)N2)CC1 (relative stereo) [Compound 28, Methyl 4-(2-chloro-3-fluorophenyl)-6-(trans-4-(2-ethoxy-2-oxoethyl)-cyclohexyl)-2-(thiazol-2-yl)-1,4-dihydropyrimidine-5-carboxylate] | 407 | 49300 | 
17 | COC(=O)C1=C(C23CC(NS(C)(=O)=O)(C2)C3)NC(c2nccs2)=NC1c1ccc(F)cc1Cl (single isomer, unassigned) [Compound 372Y, Methyl 4-(2-chloro-4-fluorophenyl)-6-(3-(methylsulfonamido)bicyclo[1.1.1]pentan-1-yl)-2-(thiazol-2-yl)-1,4-dihydropyrimidine-5-carboxylate] | 15 | 31800 | 
18 | COC(=O)C1=C(C2CCN(S(=O)(=O)N3CCOCC3)CC2)NC(c2nccs2)=NC1c1ccc(F)cc1Cl (stereo not shown) [Compound 164, Methyl 4-(2-chloro-4-fluorophenyl)-6-(1-(morpholinosulfonyl)piperidin-4-yl)-2-(thiazol-2-yl)-1,4-dihydropyrimidine-5-carboxylate] | 58 | 57400 | 
19 | COC(=O)C1=C([C@H]2CCC[C@@H](CO)C2)NC(c2nccs2)=NC1c1ccc(F)cc1Cl (single isomer, unassigned) [Compound 173A, Methyl 4-(2-chloro-4-fluorophenyl)-6-((cis)-3-(hydroxymethyl)cyclohexyl)-2-(thiazol-2-yl)-1,4-dihydropyrimidine-5-carboxylate] | 76 | 18600 | 
20 | COC(=O)C1=C(C2CCN(S(=O)(=O)c3cnn(C[C@H](C)O)c3)CC2)NC(c2nccs2)=NC1c1ccc(F)cc1Cl (stereo partly drawn) [Compound 360D, methyl 4-(2-chloro-4-fluorophenyl)-6-(1-((1-((S)-2-hydroxypropyl)-1H-pyrazol-4-yl)sulfonyl)piperidin-4-yl)-2-(thiazol-2-yl)-1,4-dihydropyrimidine-5-carboxylate] | 105 | 20400 | 
21 | COC(=O)C1=C(C2CCN(S(=O)(=O)CCC(N)=O)CC2)NC(c2nccs2)=NC1c1ccc(F)cc1Cl (stereo not shown) [Compound 457, Methyl 6-(1-((3-amino-3-oxopropyl)sulfonyl)piperidin-4-yl)-4-(2-chloro-4-fluorophenyl)-2-(thiazol-2-yl)-1,4-dihydropyrimidine-5-carboxylate] | 54 | 63400 | 
22 | COC(=O)C1=C(C2CCN(S(=O)(=O)C3CN(CCOC(C)(C)C)C3)CC2)NC(c2nccs2)=NC1c1ccc(F)c(F)c1Cl (stereo not shown) [Compound 248, Methyl 6-(1-((1-(2-(tert-butoxy)ethyl)azetidin-3-yl)sulfonyl)piperidin-4-yl)-4-(2-chloro-3,4-difluorophenyl)-2-(thiazol-2-yl)-1,4-dihydropyrimidine-5-carboxylate] | 56 | 3500 | 
23 | COC(=O)C1=C([C@H]2CC[C@H](C(=O)O)CC2)NC(c2nccs2)=NC1c1cccc(F)c1Cl (stereo partly drawn) [Compound 17, trans-4-(6-(2-Chloro-3-fluorophenyl)-5-(methoxycarbonyl)-2-(thiazol-2-yl)-3,6-dihydropyrimidin-4-yl)cyclohexanecarboxylic Acid] | 300 | 93800 | 
